“And” between values parts separate entries of the source, which are not always exact repeats. Equal values may be shown once.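 Compound exposure: 48 hours, 5 concentrations, 96-well plates. Here, GI50 denotes the concentration required for 50% inhibition of growth. TGI is the concentration that stops growth completely.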
How the values were obtained:
Assay in all cases: NCI tumour cell line growth inhibition, 48 h
HS 578T breast = test system: HS 578T breast
HCC-2998 colon = test system: HCC-2998 colon
UO-31 renal = test system: UO-31 renal
PC-3 prostate = test system: PC-3 prostate
NCI/ADR-RES ovarian = test system: NCI/ADR-RES ovarian
LOX IMVI melanoma = test system: LOX IMVI melanoma
MCF7 breast = test system: MCF7 breast
SK-MEL-2 melanoma = test system: SK-MEL-2 melanoma
BT-549 breast = test system: BT-549 breast
OVCAR-4 ovarian = test system: OVCAR-4 ovarian

Compound | GI50 (HS 578T breast) | TGI (HS 578T breast) | GI50 (HCC-2998 colon) | TGI (HCC-2998 colon) | GI50 (UO-31 renal) | TGI (UO-31 renal) | GI50 (PC-3 prostate) | TGI (PC-3 prostate) | GI50 (NCI/ADR-RES ovarian) | TGI (NCI/ADR-RES ovarian) | GI50 (LOX IMVI melanoma) | TGI (LOX IMVI melanoma) | GI50 (MCF7 breast) | TGI (MCF7 breast) | GI50 (SK-MEL-2 melanoma) | TGI (SK-MEL-2 melanoma) | GI50 (BT-549 breast) | TGI (BT-549 breast) | GI50 (OVCAR-4 ovarian) | TGI (OVCAR-4 ovarian)
CO[C@H]1/C=C/O[C@@]2(C)Oc3c(C)c(O)c4c(c3C2=O)C(=O)C(/C=N/N(c2ccccc2)c2ccccc2)=C(NC(=O)/C(C)=C\C=C\[C@H](C)[C@H](O)[C@@H](C)[C@@H](O)[C@@H](C)[C@H](OC(C)=O)[C@@H]1C)C4=O | 2.04 µM | 5.39 µM | 2.07 µM | 4.08 µM | 1.65 µM | 3.21 µM | 1.32 µM | 2.82 µM | 2.4 µM | 5.31 µM | 1.95 µM | 3.79 µM | 1.95 µM | 4.23 µM | 1.86 µM | 3.6 µM | 1.61 µM | 3.06 µM | 1.65 µM | 3.15 µM
COc1cc(/C=C2\C(=O)Nc3cc(C)c(O)cc32)cc(OC)c1OC | 2.18 µM | 9.93 µM | 5.18 µM | 17.5 µM | 4.94 µM | 41.6 µM | 4.32 µM | > 100 µM | 5.01 µM | 48.1 µM | 3.66 µM | 14.4 µM | 2.44 µM | 26.4 µM | 2.97 µM | 14.5 µM | 1.86 µM | 6.26 µM | 8.23 µM | > 67.7 µM
FC(F)c1nc2ccccc2n1-c1nc(N2CCOCC2)nc(N2CCOCC2)n1 | 0.143 µM and 0.0684 µM | 0.995 µM and 0.773 µM | 0.497 µM and 0.807 µM | – | 0.046 µM and 0.103 µM | 0.835 µM and 1.38 µM | 0.0722 µM and 0.113 µM | – | 0.457 µM and 0.496 µM | > 100 µM | 0.376 µM and 0.491 µM | – | 0.136 µM and 0.129 µM | > 62.7 µM | 0.519 µM and 1.08 µM | 2.79 µM and 14.3 µM | 0.0992 µM and 0.145 µM | 1.26 µM and 3.97 µM | 0.797 µM and 0.475 µM | 6.87 µM and 5.39 µM
CCOC(=O)c1sc(-c2ccc(OS(=O)(=O)c3ccc(Br)s3)c(C=O)c2)nc1C | 10.6 µM | 36.3 µM | 13.3 µM | 29.3 µM | 2.63 µM | 9.76 µM | 2.97 µM | 11 µM | 2.96 µM | 12.9 µM | 2.9 µM | 8.52 µM | 2.86 µM | 8.97 µM | 4.83 µM | 27.8 µM | 2.51 µM | 6.57 µM | 3.06 µM | 9.85 µM
COc1cc(-c2cc3ncccc3c3nc(N)c4cccnc4c23)cc(OC)c1OC | 0.692 µM | > 100 µM | 1.66 µM | > 100 µM | 0.936 µM | 59.8 µM | 0.579 µM | > 100 µM | 0.492 µM | 23.4 µM | 0.482 µM | 15.7 µM | 0.327 µM | > 100 µM | 0.533 µM | 8.86 µM | 0.285 µM | 1.88 µM | 3.16 µM | > 100 µM
O=C(CC(c1ccccc1)c1c(O)c2ccccc2oc1=O)c1ccccc1 (configuration not stated) | – | > 100 µM | – | > 100 µM | – | > 100 µM | – | > 100 µM | – | > 100 µM | – | > 100 µM | – | > 100 µM | – | > 100 µM | – | > 100 µM | – | > 100 µM
CCCC(=O)NC1=C(Cl)C(=O)c2ccccc2C1=O | – | > 39.9 µM | – | 16.3 µM | – | 8.99 µM | – | 13.8 µM | – | > 23.2 µM | – | 6.27 µM | – | 7.39 µM | – | 6.07 µM | – | 16.7 µM | – | 17.1 µM
